Assay results as given in patent US20160287696A1, “PAN POLLEN IMMUNOGENS AND METHODS AND USES FOR IMMUNE RESPONSE MODULATION” (LA JOLLA INSTITUTE FOR ALLERGY AND IMMUNOLOGY, priority 2013, published 2016).
Values joined by “and” are separate entries in the source; they are usually repeats but may differ in a detail not shown here. Equal entries are not always repeated.

What was measured:
[1] = system: cultured PBMCs of the allergic donors; assay: ELISPOT of IL-5 or IFNg production by cultured PBMCs of TG allergic donors in response to peptide; type: cell-based, human; settings: Table 7; peptides per NTGA recognized by T cells of grass allergic donors (n=20)
Description: Table 1 indicates for each of the 397 PG+ peptides in which non-grass pollen species a matching peptide with either less than 3, less than 2 or zero mismatches are found. The number of TG grass allergic donors (n=20) with an in vitro T cell response to the TG peptide sequence is also shown.
A set of 93 proteins from Timothy grass (TG) pollen and the assembly of 822 peptides (15 mers) predicted to promiscuously bind HLA class II molecules shown in Table 9 and the immune reactivity in allergic donors have been reported in PCT application WO 2013/119863. […] Immune reactivity was determined by the production of IL-5 or IFNg from cultured PBMCs of the allergic donors in response to stimulation with a peptide and IL-5 and IFNg were measured by ELISPOT as described in Oseroff C et al, 2010.
In short, T cell immune reactivity was determined using PBMCs isolated from study participants and stored in liquid nitrogen until further use. For experimental testing, PBMCs were thawed and expanded in vitro with TG pollen extract (50 μg/mL) or the peptide pool ([…]). The TG extract and peptide pools had each been previously titrated to determine optimal stimulation concentrations.
Cytokine production by cultured PBMCs in response to antigen stimulation was measured by ELISPOT. Cells (1×10^5 cells/well) were plated and incubated with peptide (10 μg/mL), the peptide pool (5 μg/mL), or the TG extract (50 μg/mL). Phytohaemagglutinin (10 μg/mL) and medium alone were used as positive and negative controls, respectively. Samples were considered to produce a cytokine if 100 spot-forming cells (SFCs)/10^6 PBMCs were detected, with P .05 and a stimulation index of 2 or more. Criteria for individual peptides were the same except that a minimum of 20 SFCs were required for a sample to be counted as positive.
Table 3 lists the 397 PG+ peptides and indicates for each non-grass pollen species whether a matching peptide with either less than 3, less than 2 or zero mismatches could be detected. The immune reactivity of the TG peptide was assessed as the number of TG grass allergic donors (n=20) having in vitro T cell response against the TG peptide.

[2] = system: PBMCs from Phl p reactive donors; assay: Cross-reactivity: IL-5 ELISPOT of PBMCs expanded 14 days with individual peptides, response to pollen extracts; type: cell-based, human; settings: for Bet v % Reactivity: Bet v (tree) pollen extract; for Bet v % Reactivity / Cyn d % Reactivity / Lol p % Reactivity / Ole e % Reactivity / Poa p % Reactivity / Que a % Reactivity / Amb p % Reactivity / Ant o % Reactivity / Phl p % Reactivity / Pla l % Reactivity: reactivity of extract as percentage of reactivity to the peptide, PBMCs expanded 14 days with the peptide; for Cyn d % Reactivity: Cyn d (grass) pollen extract; for Lol p % Reactivity: Lol p (grass) pollen extract; for Ole e % Reactivity: Ole e (tree) pollen extract; for Poa p % Reactivity: Poa p (grass) pollen extract; for Que a % Reactivity: Que a (tree) pollen extract; for Controls, Irrelevant Pool: control: response to irrelevant pool of cells expanded with the peptide; for Controls, Relevant Pool: control: response to relevant pool of cells expanded with the peptide; for Amb p % Reactivity: Amb p (weed) pollen extract; for Ant o % Reactivity: Ant o (grass) pollen extract; for Phl p % Reactivity: Phl p (grass) pollen extract; for Pla l % Reactivity: Pla l (weed) pollen extract; for % Reactivity, Fra e: reactivity of Fra e (tree) pollen extract as percentage of the reactivity to the peptide, cells expanded with the peptide for 14 days
Description: For each peptide, TG allergic donors were selected that reacted to the peptide after expanding PBMCs in vitro with TG extract. […] Reponses to extracts and peptide pools are expressed as the relative fraction of the response to the peptide itself, and capped at 100%.
Each peptide was used to stimulate cells and cross reactivity was tested for extracts from each pollen species. The number of mismatches (# of mm) for each peptide compared to the pollen species and the reactivity of the extracts as a percentage of the reactivity compared to the peptide are shown.
PBMCs from Phl p reactive donors were expanded with individual PG+ peptides as well as peptides derived from major allergens of Phl p for 14 days (peptides shown in Table 10). For each peptide, the mismatch to a corresponding sequence in a non-grass pollen species or a pollen species other than Phl p were determined. Cytokine IL-5 responses were measured in response to the peptide itself, Phl p extract and extracts of the other pollen species. Reponses to extracts and peptide pools were expressed as the relative fraction of the response to the peptide itself and plotted as a function of conservation of the peptide in the different extracts (FIG. 1).

Row | Substance | # Th+ [1] | Bet v % Reactivity [2] | Cyn d % Reactivity [2] | Lol p % Reactivity [2] | Ole e % Reactivity [2] | Poa p % Reactivity [2] | Que a % Reactivity [2] | Controls, Irrelevant Pool [2] | Controls, Relevant Pool [2] | Amb p % Reactivity [2] [%] | Ant o % Reactivity [2] | Phl p % Reactivity [2] | Pla l % Reactivity [2] | % Reactivity, Fra e [2]
1 | 45 (DALSPLVDVALKLSK) [compound 45] | 0 | – | – | – | – | – | – | – | – | – | – | – | – | –
2 | LIEKINAGFKAAVAA | – | 0% and 9% | 1% and 9% | 39% and 77% | 2% and 12% | 41% and 79% | 0% and 3% | 14 and 20 | 83 and 90 | – | – | – | – | –
3 | 88 (IKLKNMLFHTARINC) [compound 88] | 0 | – | – | – | – | – | – | – | – | – | – | – | – | –
4 | IGSFFYFPSIGMQRT | – | 2% | 9% | 6% | 1% | 2% | 1% | 1 | 63 | 0 | 3% | 0% | 2% | 1%
5 | EEWEPLTKKGNVWEV | – | 3% | 7% | 100% | 13% | 100% | 1% | 32 | 100 | 49 | 100% | 100% | 23% | 76%
6 | DAYVATLTEALRVIA | – | – | – | – | – | – | 10% and 8% and 0% | – | 100 and 96 and 67 | – | 95% and 90% and 58% and 68% | – | – | –
7 | NVWEVKSSKPLVGPF | – | 1% and 2% and 5% and 4% and 0% | – | – | – | – | – | – | 100 and 68 and 94 | – | – | – | – | 0%
8 | NVFDEVIPTAFTVGK | – | 2% and 0% | 0% | 96% and 100% | – | – | 0% | 17 and 28 | 100 | – | – | 75% and 81% | – | –
9 | GSDEKNLALSIKYNK | – | 0% | 8% | 66% | 10% | 67% | 0% | 19 | 87 | 5 | 58% | 32% | 0% | 4%
10 | NAGFKAAVAAAAVVP | – | – | – | – | – | – | – | – | 77 and 100 | – | – | – | – | –
11 | STWYGKPTGAGPKDN | – | 0% | – | 64% and 40% | – | – | 1% and 0% | – | – | – | 51% and 64% | – | – | 1% and 0%
12 | FKAAVAAAAGAPPAD | – | 22% | 31% | 68% | 39% | 26% | 6% | 23 | 100 | 15 | 62% | 2% | 2% | 38%
13 | SDAKTLVLNIKYTRP | – | – | – | – | – | – | – | – | 88 and 100 and 81 and 80 | – | – | – | – | –
14 | INVGFKAAVAAAASV | – | 1% and 0% | – | – | – | – | 0% and 2% | – | 100 and 70 and 60 | – | – | – | 0% and 9% | –
15 | LAKYKANWIEIMRIK | – | – | 47% | 33% | – | 22% | – | 19 | 31 | – | 14% | 6% | – | 14%
16 | DINVGFKAAVAAAAG | – | 0% and 2% | – | – | – | – | 2% and 0% | – | 53 and 100 and 95 | – | – | – | 0% and 3% and 10% | 0% and 4% and 1%
17 | MRNVFDDVVPADFKV | – | 2% and 3% and 1% and 0% | – | 88% and 82% and 73% and 72% and 100% | – | – | – | – | 81 and 94 and 98 and 100 | – | – | – | – | –
18 | DIYNYMEPYVSKVDP | – | 0% | 83% | 100% | 82% | 23% | 0% | 49 | 100 | 37 | – | 30% | 17% | 49%
19 | NPMTVFWSKMAQSMT | – | 0% | 1% | 1% | 0% | 0% | 0% | 1 | 79 | 0 | 0% | 0% | 0% | 0%
20 | AVMLTFDNAGMWNVR | – | 0% | 18% | 36% | 3% | 25% | 0% | 0 | 100 | 2 | 9% | 4% | 9% | 0%
21 | NLALSIKYNKEGDSM | – | 0% | 76% | 76% | 78% | 100% | 0% | 0 | 100 | 76 | 0% | 57% | 41% | 0%
22 | NGSQFFLCTAKTAWL | – | 1% | – | – | 4% and 5% | – | – | – | 100 and 89 | – | – | – | 1% and 2% | 3% and 0%
23 | QYAKEIWGITANPVP | – | 73% | 10% | 24% | 44% | 22% | 32% | 7 | 100 | 83 | 2% | – | 15% | 12%
24 | GELELQFRRVKCKYP | – | – | – | – | – | – | – | – | 88 and 53 and 92 and 100 | – | – | – | – | –
25 | FPIVQRFLEGASSID | – | 5% and 0% | 22% and 39% | – | – | 95% and 100% | 0% | 100 | – | – | 89% and 100% | – | – | –
